Measured values taken from PubChem BioAssay AID248 (DTP/NCI, 2004).
Values joined by “and” are separate entries in the source; they are usually repeats but may differ in a detail not shown here. Equal entries are not always repeated. Toxic doses and inconclusive results are not listed. Cut-off read from the data, not from the text of the source: active = T/C of 150% or more; inactive = T/C below 125%.

System: L1210 leukemia ip in BDF1 mice, survival T/C
Assay: NCI In Vivo Anticancer Drug Screen. Data for tumor model L1210 Leukemia (intraperitoneal) in B6D2F1 (BDF1) mice
Conditions: endpoint: mean survival time, higher = longer survival
Outline: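 Ratio derived from survival: compound-dosed mice over vehicle-dosed mice, all bearing a transplantable tumor.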

[1] = dose: 100.0 mg/kg/injection, schedule: Q01DX001 (ip), vehicle: other
[2] = dose: 100.0 mg/kg/injection, schedule: Q04DX003 (ip), vehicle: other
[3] = dose: 200.0 mg/kg/injection, schedule: Q01DX001 (ip), vehicle: other
[4] = dose: 200.0 mg/kg/injection, schedule: Q04DX003 (ip), vehicle: other
[5] = dose: 400.0 mg/kg/injection, schedule: Q01DX001 (ip), vehicle: other
[6] = dose: 400.0 mg/kg/injection, schedule: Q04DX003 (ip), vehicle: other
[7] = dose: 100.0 mg/kg/injection, schedule: Q01DX009 (ip), vehicle: saline with Tween-80
[8] = dose: 200.0 mg/kg/injection, schedule: Q01DX009 (ip), vehicle: saline with Tween-80
[9] = dose: 400.0 mg/kg/injection, schedule: Q01DX009 (ip), vehicle: saline with Tween-80
[10] = dose: 50.0 mg/kg/injection, schedule: Q01DX009 (ip), vehicle: saline with Tween-80
[11] = dose: 100.0 mg/kg/injection, schedule: Q04DX003 (ip), vehicle: saline
[12] = dose: 200.0 mg/kg/injection, schedule: Q04DX003 (ip), vehicle: saline
[13] = dose: 100.0 mg/kg/injection, schedule: Q01DX001 (ip), vehicle: saline
[14] = dose: 200.0 mg/kg/injection, schedule: Q01DX001 (ip), vehicle: saline
[15] = dose: 400.0 mg/kg/injection, schedule: Q01DX001 (ip), vehicle: saline
[16] = dose: 50.0 mg/kg/injection, schedule: Q01DX009 (ip), vehicle: saline
[17] = dose: 100.0 mg/kg/injection, schedule: Q01DX009 (ip), vehicle: saline
[18] = dose: 100.0 mg/kg/injection, schedule: Q04DX003 (ip), vehicle: saline with Tween-80
[19] = dose: 200.0 mg/kg/injection, schedule: Q04DX003 (ip), vehicle: saline with Tween-80
[20] = dose: 400.0 mg/kg/injection, schedule: Q04DX003 (ip), vehicle: saline with Tween-80
[21] = dose: 100.0 mg/kg/injection, schedule: Q04DX003 (ip), vehicle: Klucel (hydroxypropylcellulose) (HPC)
[22] = dose: 200.0 mg/kg/injection, schedule: Q04DX003 (ip), vehicle: Klucel (hydroxypropylcellulose) (HPC)
[23] = dose: 400.0 mg/kg/injection, schedule: Q04DX003 (ip), vehicle: Klucel (hydroxypropylcellulose) (HPC)
[24] = dose: 100.0 mg/kg/injection, schedule: Q01DX001 (ip), vehicle: carboxymethylcellulose (CMC)
[25] = dose: 200.0 mg/kg/injection, schedule: Q01DX001 (ip), vehicle: carboxymethylcellulose (CMC)
[26] = dose: 400.0 mg/kg/injection, schedule: Q01DX001 (ip), vehicle: carboxymethylcellulose (CMC)
[27] = dose: 100.0 mg/kg/injection, schedule: Q01DX009 (ip), vehicle: Klucel (hydroxypropylcellulose) (HPC)
[28] = dose: 200.0 mg/kg/injection, schedule: Q01DX009 (ip), vehicle: Klucel (hydroxypropylcellulose) (HPC)
[29] = dose: 400.0 mg/kg/injection, schedule: Q01DX009 (ip), vehicle: Klucel (hydroxypropylcellulose) (HPC)
[30] = dose: 50.0 mg/kg/injection, schedule: Q01DX009 (ip), vehicle: Klucel (hydroxypropylcellulose) (HPC)

Measured: T/C

CSc1nc(N)c(N)c(SC)n1
inactive: dose: 16.0 mg/kg/injection, schedule: Q01DX Z (ip), vehicle: methylcellulose (MC) 91 % of control | dose: 31.0 mg/kg/injection, schedule: Q01DX Z (ip), vehicle: methylcellulose (MC) 93 % of control | dose: 62.0 mg/kg/injection, schedule: Q01DX Z (ip), vehicle: methylcellulose (MC) 96 % of control | [1] 102 % of control | [2] 94 % of control | dose: 125.0 mg/kg/injection, schedule: Q01DX Z (ip), vehicle: methylcellulose (MC) 93 % of control | [3] 101 % of control | [4] 96 % of control | [5] 96 % of control | [6] 102 % of control

N#CCCP(=O)(CCC#N)CCCCCCP(=O)(CCC#N)CCC#N
inactive: [7] 90 % of control | [8] 90 % of control | [9] 89 % of control

CCOC(=O)C(Br)C(Br)c1cccc([N+](=O)[O-])c1 (configuration not stated)
inactive: dose: 100.0 mg/kg/injection, schedule: Q01DX009 (ip), vehicle: other 105 % of control | [2] 106 % of control | [4] 94 % of control | [6] 86 % of control

O=C(O)C1C2C=CC(C2)C1C(=O)Nc1ccccn1 (configuration not stated)
inactive: [10] 104 % of control | [7] 101 % of control | [8] 96 % of control

CC(C)c1ccc(/C=N\[N+](C)(C)C)cc1
inactive: [11] 101 % of control | [12] 95 % of control

CCCCNC(=O)n1ncc2ccc([N+](=O)[O-])cc21
inactive: [13] 105 % of control | [14] 105 % of control | [15] 102 % of control

Cc1ncc(CCl)c(CCl)c1O
inactive: [16] 95 % of control | [17] 92 % of control | [11] 98 % of control | dose: 200.0 mg/kg/injection, schedule: Q01DX009 (ip), vehicle: saline 97 % of control | [12] 97 % of control

CC(O)c1cc(Cl)ccc1Cl (configuration not stated)
inactive: [7] 87 % of control | [18] 101 % of control and 107 % of control | [8] 103 % of control | [19] 107 % of control | [9] 92 % of control | [20] 98 % of control and 92 % of control

Cc1ccc(COC(=O)Nc2ccc(Cl)c([N+](=O)[O-])c2)cc1
inactive: [7] 92 % of control | [18] 102 % of control | [8] 100 % of control | [19] 100 % of control | [9] 95 % of control | [20] 100 % of control

CCCCCCCCCCCCCCCOc1c(Cl)c(Cl)c(Cl)c(Cl)c1Cl
inactive: [21] 95 % of control | [22] 90 % of control | [23] 95 % of control

Cc1cc(C)nc(SCC(=O)O)n1
inactive: dose: 50.0 mg/kg/injection, schedule: Q01DX001 (ip), vehicle: carboxymethylcellulose (CMC) 89 % of control | [24] 105 % of control | [25] 96 % of control | [26] 105 % of control

N#CCCCCCCn1cnc2c(=S)nc[nH]c21
inactive: [21] 104 % of control | [22] 107 % of control | [23] 107 % of control

CCCCc1ccc(C(=O)c2ccccc2)c2c1C(=O)c1ccccc1C2=O
inactive: [27] 97 % of control | [21] 92 % of control | [28] 94 % of control | [22] 92 % of control | [29] 95 % of control | [23] 96 % of control

CC1(/C=N\NC(=O)CCCC(=O)N/N=C/C2(C)CCC=CO2)CCC=CO1 (configuration not stated)
inactive: [13] 92 % of control | [15] 97 % of control

CC(=O)COc1ccccc1
inactive: [27] 108 % of control | [21] 100 % of control | [28] 110 % of control | [22] 97 % of control | [29] 108 % of control | [23] 95 % of control

CC(=O)Nc1ccc2c(c1)Cc1cc(Cl)ccc1-2
inactive: dose: 50.0 mg/kg/injection, schedule: Q01DX001 (ip), vehicle: saline 105 % of control | [13] 100 % of control | [14] 103 % of control | [15] 105 % of control

CCOC(=O)CNc1cc(N)ncn1
inactive: [16] 105 % of control | [17] 112 % of control

CCCCCCCCCCCCCCCCCC1=Nc2ccccc2NC(=O)C1
inactive: [24] 98 % of control | [25] 98 % of control | [26] 93 % of control

CCCCCCCCCCCCCCCCCCNC(=O)Nc1ccc(OC)cc1
inactive: dose: 100.0 mg/kg/injection, schedule: Q04DX002 (ip), vehicle: Klucel (hydroxypropylcellulose) (HPC) 93 % of control | dose: 200.0 mg/kg/injection, schedule: Q04DX002 (ip), vehicle: Klucel (hydroxypropylcellulose) (HPC) 104 % of control | dose: 400.0 mg/kg/injection, schedule: Q04DX002 (ip), vehicle: Klucel (hydroxypropylcellulose) (HPC) 93 % of control

CCN(CC)CCOC(=O)c1ccc(N)cc1
inactive: dose: 12.5 mg/kg/injection, schedule: Q01DX009 (ip), vehicle: saline 97 % of control | dose: 25.0 mg/kg/injection, schedule: Q01DX009 (ip), vehicle: saline 103 % of control | dose: 25.0 mg/kg/injection, schedule: Q04DX003 (ip), vehicle: saline 101 % of control | [16] 100 % of control and 95 % of control | dose: 50.0 mg/kg/injection, schedule: Q04DX003 (ip), vehicle: saline 111 % of control | [17] 100 % of control and 101 % of control | [11] 101 % of control

O=C(OCCBr)c1ccc([N+](=O)[O-])cc1
inactive: [30] 100 % of control | [27] 106 % of control | [28] 97 % of control

CC(=O)N(c1ccccc1)c1ccc(-c2ccc(N(C(C)=O)c3ccccc3)cc2)cc1
inactive: dose: 50.0 mg/kg/injection, schedule: Q01DX001 (ip), vehicle: other 100 % of control | [1] 105 % of control | [3] 100 % of control | [5] 89 % of control

Oc1cc(-c2cc(O)c(O)c(O)c2)cc(O)c1O
inactive: [7] 104 % of control | [8] 108 % of control

CCCc1nc2c(OC)ccc(OC)c2nc1C
inactive: dose: 12.5 mg/kg/injection, schedule: Q01DX009 (ip), vehicle: Klucel (hydroxypropylcellulose) (HPC) 98 % of control | dose: 25.0 mg/kg/injection, schedule: Q01DX009 (ip), vehicle: Klucel (hydroxypropylcellulose) (HPC) 97 % of control | [30] 92 % of control | [27] 94 % of control | dose: 100.0 mg/kg/injection, schedule: Q04DX003 (ip), vehicle: acetone 97 % of control | [28] 86 % of control | dose: 200.0 mg/kg/injection, schedule: Q04DX003 (ip), vehicle: acetone 97 % of control | dose: 400.0 mg/kg/injection, schedule: Q04DX003 (ip), vehicle: acetone 98 % of control

COC(=O)C(C)Oc1ccc([N+](=O)[O-])c(O)c1[N+](=O)[O-] (configuration not stated)
inactive: [21] 100 % of control | [22] 91 % of control | [23] 96 % of control

CC(C)N(CCSC(=O)N1c2ccccc2Sc2cccnc21)C(C)C
inactive: dose: 5.0 mg/kg/injection, schedule: Q04DX003 (ip), vehicle: Klucel (hydroxypropylcellulose) (HPC) 90 % of control | dose: 10.0 mg/kg/injection, schedule: Q04DX003 (ip), vehicle: Klucel (hydroxypropylcellulose) (HPC) 110 % of control

COc1cc(OC)c(OC)cc1C=NC1CCCCCCC1
inactive: [10] 91 % of control | [7] 102 % of control | [8] 102 % of control

CCN(CC)CCO[C@H]1CC[C@@]2(C)C(=CC[C@@H]3[C@@H]2CC[C@]2(C)C(=O)CC[C@@H]32)C1
inactive: dose: 50.0 mg/kg/injection, schedule: Q01DX001 (sc), vehicle: steriod suspending solution 101 % of control | dose: 100.0 mg/kg/injection, schedule: Q01DX001 (sc), vehicle: steriod suspending solution 90 % of control
